Patent US8772463B2, “Fluorescent dye-labeled glucose bioprobe, synthesis method and usage thereof” (SNU R&DB Foundation, priority 2007, dated 2014)
“Also recorded” adds a separate entry of the source.

Columns and labels:
[1] = normal media containing 10 mM D-glucose; cited from earlier work
A549 cells [2] = test: Probe uptake by A549 cells, inverted fluorescent microscope (α/β anomers, alanine, 2-NBDG comparison); type: cell-based, human
Description: (§1) 1×10^4 cells were cultured on a Lab-Tek glass chamber slide (Nalge Nunc International, Naperville, Ind., USA) in 35 mm cell culture dish. After 24 h, the cells were treated for each experimental purpose. Then, the medium was replaced with RPMI 1640 medium containing 12.5 μM of Cy3-Glc-α. The cells were exposed to Cy3-Glc-α for 40 min, then washed with PBS 3 times. Finally, the glass chamber slide was taken from culture dish and loaded on the fluorescence microscope (Axiovert 200, Carl Zeiss, Germany). Fluorescence images of 35-50 cells were taken by CCD camera (Axiocam MRm, Germany) and fluorescence intensity of each cell was measured by Axiovision (program for data analysis). An area as ROIs (regions of interest) which contains a cell in phase-contrast image was drawn using Axiovision. Axiovision analyzed CCD camera images and provided the digitized mean of fluorescence intensity in the ROIs that the present inventors had established. The present inventors subtracted the background intensity from the fluorescence intensity to get the fluorescence intensity value that a cell contained. With the method described above, the present inventors digitized fluorescence intensity and performed various experiments.
To confirm the above hypothesis, real-time uptake of Cy3-Glc-α was measured, and the results were compared to those of Cy3-Glc-β by live imaging of A549 cells by using inverted fluorescent microscope. […] This led the present inventors to the conclusion that the stereochemistry at the C-1 anomeric position definitely influences the efficiency of mimicking glucose, and this might be due to the binding orientation of D-glucose in GLUTs [P. W. Hruz, M. M. Mueckler, Mole. Memb. Biol. 2001, 18, 183-193].
The cellular uptake of 2-NBDG was not detected under identical experimental conditions used for Cy3-Glc-α. […] To achieve the fluorescence intensity with 2-NBDG to 80% that of Cy3-Glc-α, a 10 fold increase in 2-NBDG concentration and a 20 fold increase in the lens exposure time in D-glucose-depleted medium were needed.
In addition, the cellular uptake of 2-NBDG in normal media (containing 10 mM D-glucose) was extremely low (>60% uptake reduction in normal media) and was hardly detected using fluorescent based imaging methods [R. G. O'Neil, L. Wu, N. Mullani, Mol. Imaging Biol. 2005, 7, 388-392]. 2-NBDG was detectable only in glucose-depleted media, and this means a critical limitation of bioapplication of 2-NBDG in the biologically significant environments. In comparison with 2-NBDG, the reduction of Cy3-Glc-α uptake in glucose-containing media was only 5% compared to that in glucose-depleted media (FIG. 18). Therefore, it was confirmed that Cy3-Glc-α was capable of being applied to a bioassay system regardless of glucose starvation.

NIH/3T3 cells [3] = test: FACS-based flow cytometric analysis of probe uptake with/without 11 mM D-glucose; type: cell-based, murine; details: for reduction in cellular uptake due to 11 mM D-glucose: glucose-depleted condition normalized to 100
Description: FACS (Fluorescence Activated Cell Sorting)-based flow cytometric analysis was used to compare cellular uptake efficiency in NIH/3T3 cells among the glucose probe [2-(N-Cy3-piperazinoethyl)]-α-D-glucose (GB2-Cy3), synthesized in Example 2, the conventional fluorescent glucose probe 2-NBDG and the glucose probe Cy3-Glc-α, synthesized in Example 1.
NIH/3T3 cells were cultured on 10 cm cell culture dishes and transferred in a volume of 3×10^5 cells into each FACS tube (5 mL, BD). They were washed once with cold PBS before incubation at 37° C. for 30 min in 11 mM D-glucose-containing PBS or glucose-free PBS in the presence of the bioprobe [GB2-Cy3 (5 μM), 2-NBDG (5 μM or 50 μM) or Cy3-Glc-α (5 μM)]. Cells that were incubated without the bioprobes were used as a negative control. After being washed with cold PBS, 1×10^4 NIH/3T3 cells were analyzed on FACSCalibur™ (FACS-based flow cytometer). GBs-Cy3 was detected by FL2 channels. Raw data of 1×10^4 cells are shown in histograms, with the mean values thereof given in the graph of FIG. 21.

A549 cells [4] = test: Screening of anticancer agents by Cy3-Glc-α uptake; type: cell-based, human
Description: as §1
The application was performed under the postulation that the depression of perturbed cellular metabolism in cancer cells was caused by anticancer agents, which was closely related to the reduction of glucose uptake.
The present inventors intended to monitor this phenomenon by the fluorescent bioprobe according to the present invention, that is, Cy3-Glc-α. As a proof-of-principle experiment, after A549 cancer cells were treated with taxol (9.8 μM), an anticancer agent, and the uptake of Cy3-Glc-αwas measured at 3, 6, 12, and 24 h after the treatment.
(3) In addition, after the taxol concentration was changed in the range of 490 nM to 49 nM, the uptake of Cy3-Glc-α by A549 cells was measured after 8 hr and 12 hr, and after another anticancer agent, i.e., combretastatin, (2 μM) was used to treat A549 cells, the uptake of Cy3-Glc-α by A549 cells was measured after 8 hr and 12 hr.

A549 cells [5] = test: Fluorescence imaging analysis of competitive probe uptake; type: cell-based, human
Description: (§2) Also, NIH/3T3, A549, C2C12 and 3T3/L1 cells, each having a population of 4×10^4 cells, were cultured on 35 mm cell culture dishes (BD Falcon™ Cell Culture Dish; BD Bioscience, CA, USA). Two days later, the cell culture medium was replaced with a glucose-depleted medium (DMEM, glucose free, GIBCO) supplemented with 0 mM, 11 mM or 55 mM D-glucose and 10 μM GB2-Cy3. After incubation at 37° C. for 30 min, the cells on the cover slips in the 35-mm cell culture dishes were washed twice with cold PBS and the cover slips were mounted on the caster of a fluorescence microscope (Olympus IX71). During observation under the fluorescence microscope, the cells were maintained at 37° C. in the chamber. Fluorescence images of 35-50 cells were taken by CCD camera (Axiocam MRm, Germany) and each cell was measured for fluorescence intensity using the image data analysis program Image-Pro® Plus (MediaCybernetics, USA). As ROIs (regions of interest), areas which encompassed cells within phase-contrast images were drawn using Image-Pro® Plus. Image-Pro® Plus analyzed CCD camera images to produce the digitized mean of fluorescence intensity within the ROIs that the present inventors had established. The background intensity was subtracted from the detected fluorescence intensity to give the fluorescence intensity value that a cell contained. In this manner, the fluorescence intensity was digitized for performing various experiments.
NIH/3T3 and A549 cells were cultured on microscope cover glasses in 35 mm cell culture dishes and subjected to fluorescence imaging analysis according to the protocol.

NIH/3T3 cells [6] = test: Fluorescence imaging analysis of competitive GB2-Cy3 uptake; type: cell-based, murine; details: GB2-Cy3 10 μM; 0, 11 or 55 mM D-glucose
Description: as §2, with “As ROIs (regions of interest), areas which encompassed cells within phase-contrast images were drawn using Image-Pro® Plus.” left out, “experiments. […]” for “experiments.”

3T3/L1 pre-adipocytes = test: GB2-Cy3 uptake during adipocyte differentiation, FACS-based flow cytometry; type: cell-based, mouse; details: day 0 to day 8 of differentiation
Description: (§3) For the differentiation of preadipocyte to mature adipocytes, 3T3/L1 fibroblast cells were cultured using the above mentioned culture protocol. […] When the cells start to generate lipid drops as an indication of the differentiation toward mature adipocytes, insulin was removed from the culture media. Mature adipocytes can be achieved by 8- to 12-day differentiation, and used for flow cytometric analysis and fluorescent bioimaging microscopy.
The changes in cellular glucose uptake from 3T3/L1 pre-adipocytes (day 0 of differentiation) toward more than 50% differentiation of mature adipocytes (day 8 of differentiation) were measured by FACS-based flow cytometric analysis using GB2-Cy3. The differentiation procedure was followed as described above. 1×10^4 cells were analyzed at FL2 channel of the flow cytometry. […] As mentioned above, the glucose analogue GB2-Cy3 of the present invention is useful for monitoring the differentiation of 3T3/L1 cells into mature adipocytes.

C2C12 muscle cells [7] = test: Glucose competition and insulin response monitored by GB2-Cy3, flow cytometry; type: cell-based, mouse; details: D-glucose competition and insulin treatment
Description: For the differentiation to mature muscle cells, C2C12 mouse myoblast cells were maintained in DMEM supplemented with 10% FBS and 1% antibiotic-antimycotic solution. When the cells reached to 100% confluency, the medium was changed to DMEM containing 2% horse serum in every two days. Experiments for flow cytometric analysis and flow cytometric analysis were carried out with cells after 3 to 5-days differentiation.
The resulting cells were incubated with 5 μM GB2-Cy3 for 15 min in the absence/presence of 11 mM D-glucose. They were washed with cold PBS, collected and analyzed using FACSCalibur™. After detection of GB2-Cy3 by FL2 channels, mean fluorescent intensity values were calculated.

C2C12 muscle cells [8] = test: Cellular glucose uptake under insulin, AICAR, dexamethasone monitored by GB2-Cy3; type: cell-based, mouse; details: insulin 170 nM, AICAR 1 mM (1 hr) or dexamethasone 1 μM (24 hrs); GB2-Cy3 5 μM
3T3/L1 adipocytes = test: as above; type: cell-based, mouse; details: insulin 170 nM, AICAR 1 mM (1 hr) or dexamethasone 1 μM (24 hrs); GB2-Cy3 10 μM
Description: as §3
Also, C2C12 cells and 3T3/L1 cells, each having a population of 6×10^4 cells, were cultured and differentiated on respective microscope cover glasses [Marlenfeld GmbH&Co., KG (Germany)] in 35 mm cell culture dishes. After removal of the differentiation media, FBS-free DMEM media containing 5.5 mM glucose were added to maintained a serum-free condition for 4 hrs. […] In this regard, an FBS-free DMEM medium containing 5.5 mM glucose or a DMEM medium free of both FBS and glucose was used. Cells were incubated at 37° C. for 30 min after which the glass chamber slides were withdrawn from the culture dishes and loaded on a chamber. […] Fluorescence images were taken every seven seconds, digitized and saved on a computer until analysis.
3T3/L1 preadipocyte cells and C2C12 […] cells were cultured in 24-well plates. […] 2×10^5 (3T3/L1) or 1×10^5 (C2C12) cells were analyzed using FACSCalibur™ and a confocal laser scanning microscope.

In the case of `O=[N+]([O-])c1ccc(NC2C(O)OC(CO)C(O)C2O)c2nonc12` [2-NBDG, 2-[N-(7-nitrobenz-2-oxa-1,3-diazol-4-yl)amino]-2-deoxy-D-glucose], the “uptake reduction in normal media” value [1] is given as > 60%, the “detection of cellular uptake under conditions identical to Cy3-Glc-α” value (A549 cells [2]; 12.5 μM, 500 ms lens exposure) is given as “not detected” and the “fluorescence detection at 125 μM” value (A549 cells [2]; 125 μM, 500 ms CCD lens exposure) is given as “little detected; also recorded: the fluorescence was not detected”. The “fluorescence intensity of 2-NBDG relative to that of Cy3-Glc-α” value (A549 cells [2]; 10 fold 2-NBDG concentration, 20 fold lens exposure time, D-glucose-depleted medium) was 80%, the “competition with D-glucose for cellular uptake” value (NIH/3T3 cells [3]; probe 5 μM, 11 mM D-glucose) was “did not compete with D-glucose for cellular uptake” and the “reduction in cellular uptake due to 11 mM D-glucose” value (NIH/3T3 cells [3]; probe 50 μM) was 30%.
In the case of `COc1ccc(C[C@@H](O)c2cc(OC)c(OC)c(OC)c2)cc1O` [Combretastatin], the “uptake of Cy3-Glc-α by A549 cells” value (A549 cells [4]; agent 2 μM, 6 h) is reported as 57.4% and the “uptake of Cy3-Glc-α by A549 cells” value (A549 cells [4]; agent 2 μM, 12 h) is reported as 45.0%.
In the case of `C[N+]1=C(/C=C/C=C2/N(CCCCC(=O)N3CCN(CCOC4OC(CO)C(O)C(O)C4O)CC3)c3ccccc3C2(C)C)C(C)(C)c2ccccc21` [GB2-Cy3, [2-(N-Cy3-piperazinoethyl)]-α-D-glucose], the “cellular uptake in A549 cells compared with NIH/3T3 cells” value (A549 cells [5]; GB2-Cy3 10 μM) is reported as “observed to increase in A549 lung carcinoma cells”, the “cellular uptake versus D-glucose concentration” value (A549 cells [5]; GB2-Cy3 10 μM, 0, 11 or 55 mM D-glucose) is reported as “reduced in a D-glucose dose-dependent manner” and the “cellular uptake versus D-glucose concentration” value (A549 cells [5]; probe 12.5 μM) is reported as “decreased in the cellular uptake of the glucose analogues in D-glucose dose-dependent manners”. The “change in the fluorescent intensity of ROIs when D-glucose changed from 10 mM to 55 mM” value (A549 cells [5]; probe 12.5 μM) was “approximately 27%”, the “cellular uptake versus D-glucose concentration” value (NIH/3T3 cells [6]) was “reduced in a D-glucose dose-dependent manner” and the “fluorescent intensity (FL2) as differentiation progressed” value (3T3/L1 pre-adipocytes) was “increase in fluorescence intensity with the advance of differentiation; also recorded: the fluorescent intensity detected by FL2 channel was increased”. The “uptake route of GB2-Cy3” value (C2C12 muscle cells [7]) was “GLUT-specific uptake” and the “reduction in cellular uptake due to 11 mM D-glucose” value (NIH/3T3 cells [3]; probe 5 μM) was “about 60%”.
For `CC(=O)O[C@H]1C(=O)[C@@]2(C)[C@H]([C@H](OC(=O)c3ccccc3)[C@]3(O)C[C@H](OC(=O)[C@H](O)[C@@H](NC(=O)c4ccccc4)c4ccccc4)C(C)=C1C3(C)C)[C@]1(OC(C)=O)CO[C@@H]1C[C@@H]2O` [Taxol], the “uptake of Cy3-Glc-α by A549 cells” value (A549 cells [4]; agent 49 nM, 6 h) was 96.5%, the “uptake of Cy3-Glc-α by A549 cells” value (A549 cells [4]; agent 49 nM, 12 h) was 86.9% and the “uptake of Cy3-Glc-α by A549 cells” value (A549 cells [4]; agent 490 nM, 6 h) was 88.4%. For the same compound, the “uptake of Cy3-Glc-α by A549 cells” value (A549 cells [4]; agent 490 nM, 12 h) was 61.8%, the “uptake of Cy3-Glc-α by A549 cells” value (A549 cells [4]; agent 9.8 μM, 6 h) was 54.8% and the “uptake of Cy3-Glc-α by A549 cells” value (A549 cells [4]; agent 9.8 μM, 12 h) was 50.2%. The “cellular uptake of Cy3-Glc-α versus incubation time with agent” value (A549 cells [4]; taxol 9.8 μM, 3, 6, 12, 24 h) was “reduced as the incubation time increased”.
With “insulin: Insulin purchased from SIGMA; stimulates GLUT4 translocation and glucose uptake” the “effect on cellular uptake of glucose monitored by GB2-Cy3” value (C2C12 muscle cells [8]) was “enhanced cellular uptake of glucose” and the “effect on cellular uptake of glucose monitored by GB2-Cy3” value (3T3/L1 adipocytes) was “enhanced cellular uptake of glucose”.
